Publication PMC5614581, “Investigating cyclic nucleotide and cyclic dinucleotide binding to HCN channels by surface plasmon resonance” (PLoS ONE, 2017)
Residue numbers refer to the chain shown, from its start. Entries after “also recorded” stand apart in the source; their conditions may differ. Like-named read-outs stand apart in the source and are kept apart here.

Legend:
[1] = biological target: isolated C-linker/CNBDs of HCN2 channels; details: read-out: binding affinity (SPR, ligand coupled to CM5 chip); cited from earlier work
[2] = biological target: isolated C-linker/CNBDs of HCN4 channels; details: read-out: binding affinity (SPR, ligand coupled to CM5 sensor); cited from earlier work
[3] = biological target: C-linker/CNBDs of HCN4 channels; details: read-out: binding affinity (FA), cited from earlier work
[4] = biological target: isolated C-linker/CNBDs of HCN2 channels; details: read-out: binding affinity (FA); cited from earlier work
[5] = test system: full-length hHCN4 channels; details: cited from earlier work; for effect on cyclic nucleotide modulation of the channel: in the presence of cyclic nucleotides
[6] = biological target: T1, C-linker/CNBD of mouse HCN2 (mHCN2, residues 443–645) (Mus musculus, UniProt O88703); test: SPR, immobilized mHCN2 C-linker/CNBD on NTA chip; details: for Kd: SPR
T1 sequence (O88703 443-645): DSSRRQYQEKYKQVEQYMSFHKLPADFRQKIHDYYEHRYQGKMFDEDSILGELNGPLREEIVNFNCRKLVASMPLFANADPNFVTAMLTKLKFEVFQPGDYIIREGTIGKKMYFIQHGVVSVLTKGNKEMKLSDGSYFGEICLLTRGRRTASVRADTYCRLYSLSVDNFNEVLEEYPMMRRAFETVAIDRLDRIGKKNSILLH
Experimental: (§1) SPR experiments were performed at 25 °C on a Biacore 4000 Instrument (GE Healthcare). C-linker/CNBDs of wild-type and L586W mutant mHCN2, and hHCN4 channels were immobilized on a NTA chip (GE Healthcare), as previously described [31, 32]. Immobilizations of the proteins were performed in HBS-P buffer (150 mM NaCl, 10 mM HEPES, 0.05% (v/v) surfactant P20, pH 7.4). First the NTA sensor surface was activated with a 1 min injection of 0.5 M NiCl2. The coupling of the Ni^2+-NTA chip surface groups with the 6-His-tagged proteins was then achieved by 2.5 min injections of the proteins at 200 nM concentrations to the chip surface. After the initial capturing, the proteins were covalently cross-linked via 20 s injections of NHS-EDC carboxyl-reactive cross-linkers to prevent protein loss from the chip surface with successive analyte and buffer injections. This was followed by 20 s injection of 1 M ethanolamine to block the remaining reactive sites. The proteins were captured at ~1000–3000 resonance units (RU; 1 RU = 1 pg of protein per mm^2). […] This spot was used as a reference surface to account for a non-specific binding to the chip surface. The binding to the reference surface was subtracted from the binding to the surfaces with immobilized proteins. In addition, the binding corresponding to blank injections (buffer only) was subtracted from the reference subtracted SPR data.
(§2) The binding experiments were performed in the running buffer (150 mM KCl, 10% Glycerol, 1 mM TCEP, 30 mM HEPES, pH 7.5). Analytes over the range of concentrations were injected in triplicates over the chip surface for 60 s at a flow rate of 30 μl /min, followed by buffer only injections. The regeneration of the surface between the analyte injections was not necessary, as the baseline returned to the pre-injection levels. In some experiments we observed a drift in the baseline. […] However, there was minimal residual binding between analyte injections, as indicated by essentially the same binding response for triplicate repeats of analyte injections at the same concentrations.
(§3) Each experiment was repeated on at least three different NTA chips.
(§4) Therefore, concentrations higher than 300 μM were excluded from the analysis. The data analysis and fitting of the plots was performed in Origin (Microcal Software, Inc). Error bars indicate the SEM. […] For each NTA chip an analyte was injected three times. Therefore, each experiment was repeated at least 3xn times. Statistical analysis was performed by using one-way ANOVA. P < 0.05 was considered statistically significant.

[7] = biological target: T2, C-linker/CNBD of human HCN4 (hHCN4, residues 521–723) (Homo sapiens, UniProt Q9Y3Q4); test: SPR, immobilized hHCN4 C-linker/CNBD on NTA chip; details: for SPR binding response: analyte alone (no added cAMP), 300 μM or range up to 300 μM; for SPR binding response in the presence of cAMP: in the presence of 100 μM cAMP, analyte 300 μM or range up to 300 μM
T2 sequence (Q9Y3Q4 521-723): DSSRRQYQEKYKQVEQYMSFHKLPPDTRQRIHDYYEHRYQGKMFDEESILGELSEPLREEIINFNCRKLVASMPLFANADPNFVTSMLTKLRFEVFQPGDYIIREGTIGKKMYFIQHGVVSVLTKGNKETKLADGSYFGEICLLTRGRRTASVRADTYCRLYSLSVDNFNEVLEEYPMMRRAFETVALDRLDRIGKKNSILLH
Experimental: as §1, §2, §3, §4

[8] = biological target: T3, hHCN4 C-linker/CNBD (monomeric) (Homo sapiens, UniProt Q9Y3Q4); test: ITC, 6 μM (monomeric) 6-His tagged hHCN4 C-linker/CNBD; format: binding; details: 6 μM C-linker/CNBD
T3 construct: human HCN4 (hHCN4, residues 521–723); made in house; host or cells: E. coli BL21 (DE3)
T3 sequence (Q9Y3Q4 521-723): T2 sequence (Q9Y3Q4 521-723)
Experimental: (§5) For ITC experiments at low concentrations of the hHCN4 C-linker/CNBD the protein was concentrated to 6 μM and dialyzed in 150 mM KCl, 1 mM TCEP, 30 mM HEPES, pH 7.5 overnight at 4°C using a Slide-A-Lyzer dialysis cassette (ThermoFisher Scientific). For ITC experiments at high concentrations of the hHCN4 C-linker/CNBD the protein was concentrated to 80 μM and dialyzed in 100 mM KCl, 1 mM TCEP, 20 mM HEPES, pH 7.0 overnight at 4°C using a Slide-A-Lyzer cassette. The protein solutions were degassed prior to each experiment. ITC titrations were performed at 25°C using the ITC200 calorimeter (Malvern Instruments Inc. Westborough, MA). […] Data analysis was performed with NITPIC and SEDFAT [34, 35] using a single-site binding model for 6 μM C-linker/CNBDs and a two independent binding site model for 80 μM C-linker/CNBDs, as used by Chow et al. [36].

[9] = biological target: T4, hHCN4 C-linker/CNBD (tetrameric) (Homo sapiens, UniProt Q9Y3Q4); test: ITC, 80 μM (tetrameric) hHCN4 C-linker/CNBD after MBP tag cleavage; format: binding; details: 80 μM C-linker/CNBD
T4 construct: C-linker/CNBD of hHCN4 (residues 521–723); made in house; host or cells: E. coli BL21 (DE3)
T4 sequence (Q9Y3Q4 521-723): T2 sequence (Q9Y3Q4 521-723)
Experimental: as §5

[10] = biological target: mHCN2-L586W C-linker/CNBDs; details: read-out: binding affinity (tryptophan fluorescence); cited from earlier work
[11] = test system: full-length HCN2 channels; details: read-out: affinity for full-length HCN2 channels, electrophysiology; cited from earlier work
[12] = biological target: isolated C-linker/CNBDs of HCN2 channels; details: cGMP; read-out: binding affinity (ITC); cited from earlier work
[13] = biological target: T5, mHCN2-L586W C-linker/CNBD (Mus musculus, UniProt O88703, L586W); test: SPR, immobilized mHCN2-L586W C-linker/CNBD on NTA chip; format: binding
T5 construct: mouse HCN2 (mHCN2, residues 443–645); made in house; host or cells: E. coli BL21 (DE3)
T5 sequence (O88703 443-645 L586W): T1 sequence (O88703 443-645) with L144W
Experimental: Error bars indicate the SEM. […] Statistical analysis was performed by using one-way ANOVA. P < 0.05 was considered statistically significant.

[14] = analyte alone (no added cAMP), 300 μM
[15] = in the presence of 100 μM cAMP, analyte 300 μM

NCCCCCCNc1nc2c(N)ncnc2n1[C@@H]1O[C@@H]2COP(=O)(O)O[C@H]2[C@H]1O [8-AHA-cAMP]
Kd [1]: 10 µM
Kd [2]: 11 µM

Nc1ncnc2c1nc(SCCNC(=S)Nc1ccc(-c3c4ccc(=O)cc-4oc4cc(O)ccc34)c(C(=O)O)c1)n2C1OC2COP(=O)(O)OC2C1O (stereo not drawn) [8-Fluo-cAMP]
Kd ([3]; 8-Fluo-cAMP): 0.18 to 0.28 µM
Kd [4]: 0.3 to 0.7 µM

Nc1nc2c(nc(SCCNC(=S)Nc3ccc4c(c3)C(=O)OC43c4ccc(O)cc4Oc4cc(O)ccc43)n2[C@@H]2O[C@@H]3COP(=O)(O)O[C@H]3[C@H]2O)c(=O)[nH]1 [8-Fluo-cGMP]
Kd ([3]; 8-Fluo-cGMP): 0.7 µM

Nc1ncnc2c1ncn2[C@@H]1O[C@@H]2COP(=O)(O)O[C@H]3[C@@H](O)[C@H](n4cnc5c(N)ncnc54)O[C@@H]3COP(=O)(O)O[C@H]2[C@H]1O [c-di-AMP]
effect on cyclic nucleotide modulation of the channel [5]: antagonized the effect of cyclic nucleotides
SPR binding response [6, 14]: No increase in the binding response
SPR binding response ([6]; analyte alone (no added cAMP), 300 μM, listed as c-diAMP): did not detect any binding
SPR binding response in the presence of cAMP [6, 15]: No increase in the binding response
SPR binding response in the presence of cAMP ([6]; in the presence of 100 μM cAMP, analyte 300 μM, listed as c-diAMP): did not detect any binding
SPR binding response [7]: No increase in the binding response; also recorded: did not show any cyclic dinucleotide binding
SPR binding response ([7]; listed as c-diAMP): did not detect any binding
SPR binding response in the presence of cAMP [7]: No increase in the binding response; also recorded: did not show any cyclic dinucleotide binding
SPR binding response in the presence of cAMP ([7]; listed as c-diAMP): did not detect any binding

Nc1nc2c(ncn2[C@@H]2O[C@@H]3COP(=O)(O)O[C@H]4[C@@H](O)[C@H](n5cnc6c(=O)[nH]c(N)nc65)O[C@@H]4COP(=O)(O)O[C@H]3[C@H]2O)c(=O)[nH]1 [c-di-GMP]
binding (ITC) ([8]; absence of cAMP, titrated with 300 μM ligand): no binding
binding (ITC) in the presence of cAMP ([8]; presence of 100 μM cAMP in ligand and protein solutions): no binding
effect on the cAMP-induced V1/2 shift ([5]; 100 μM c-di-GMP, 15 μM cAMP): completely abolishing the effect of 15 μM cAMP
IC50 ([5]; in the presence of 15 μM cAMP, read-out: apparent affinity for decreasing the cAMP-induced positive shift in V1/2): 1.8 µM
effect on cyclic nucleotide modulation of the channel [5]: antagonized the effect of cyclic nucleotides
SPR binding response [6, 14]: did not detect any binding
SPR binding response in the presence of cAMP [6, 15]: did not detect any binding
binding (ITC) ([9]; absence of cAMP): no binding
binding (ITC) in the presence of cAMP ([9]; presence of 1 mM cAMP): no binding
SPR binding response [7]: No increase in the binding response; also recorded: did not show any cyclic dinucleotide binding
SPR binding response ([7]; listed as c-diGMP): did not detect any binding
SPR binding response in the presence of cAMP [7]: No increase in the binding response; also recorded: did not show any cyclic dinucleotide binding
SPR binding response in the presence of cAMP ([7]; listed as c-diGMP): did not detect any binding

Nc1nc2c(ncn2[C@@H]2O[C@@H]3COP(=O)(O)O[C@H]4[C@@H](O)[C@H](n5cnc6c(N)ncnc65)O[C@@H]4COP(=O)(O)O[C@@H]2[C@@H]3O)c(=O)[nH]1 [cGAMP]
effect on cyclic nucleotide modulation of the channel [5]: antagonized the effect of cyclic nucleotides
SPR binding response [6]: did not detect any binding
SPR binding response in the presence of cAMP [6]: did not detect any binding

Nc1nc2c(ncn2[C@@H]2O[C@@H]3COP(=O)(O)O[C@H]3[C@H]2O)c(=O)[nH]1 [cGMP]
Kd [10]: 62 ± 23 µM
EC50 [11]: ~6 µM
EC50 ([5]; cGMP, read-out: affinity for full-length hHCN4 channels, electrophysiology): 13.2 µM
Kd ([6]; read-out: Kd (averaged binding affinity), averaged over different NTA chips, 25 °C, Hill fit): 13.4 ± 2 µM
Kd ([6]; read-out: binding affinity (fit of representative dose response plot), single surface, Fig 1E): 12.3 ± 1.1 µM
Kd [12]: 8.5 µM
Kd ([13]; averaged over different NTA chips, for cGMP only a limit could be estimated, read-out: Kd (averaged binding affinity)): > 73.9 µM
Kd ([13]; single surface, Fig 2D, read-out: binding affinity (fit of representative dose response plot)): ≥ 70.1 µM
affinity for hHCN4 relative to mHCN2 domains ([7]; SPR, P < 0.05 by ANOVA): about two-fold higher
SPR binding response [7]: robust response
Kd ([7]; read-out: Kd (averaged binding affinity), SPR, averaged over different NTA chips): 5.5 ± 0.9 µM
Kd ([7]; read-out: binding affinity (fit of representative dose response plot), SPR, single surface, Fig 3C): 5.6 ± 0.2 µM
